“And” between values parts separate entries of the source, which are not always exact repeats. Equal entries are not always repeated.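 Interpolation was linear, between the two tested concentrations surrounding the appropriate level; five concentrations were tested over 48 hours in 96-well plates. The concentration for 50% growth inhibition is given as GI50. TGI is the concentration that stops growth completely.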

For 12 molecules, TGI and GI50 results are on record in PubChem BioAssay (NCI).

Test in all cases: NCI tumour cell line growth inhibition, 48 h
The subject of assay [1] is HT29 colon.
The subject of assay [2] is OVCAR-3 ovarian.
Assay [3] relates to EKVX NSCLC.
For assay [4], the system named is HCT-116 colon.
Assay [5] has as its system MALME-3M melanoma.
The test system of assay [6] is SN12C renal.
Assay [7] deals with KM12 colon.
The test system of assay [8] is HOP-62 NSCLC.
Assay [9] deals with ACHN renal.
The subject of assay [10] is A498 renal.

In the case of `O=S(Nc1ccccc1)c1ccc(N2CCOCC2)cc1` (stereo not given), the TGI in [1], in assay [2], in [3], in assay [4], in [5] and in assay [6] was over 100 µM throughout. The TGI in assay [7], in assay [8] and in assay [9] was over 100 µM throughout.
For the molecule `CN(C)C(=O)OC1C(=O)N(C)c2ccc(Cl)cc2C2(c3ccccc3)N1C2(Cl)Cl` (stereo not given), the TGI in assay [1], in assay [2], in assay [3], in assay [4], in assay [5] and in [6] was over 100 µM throughout. The TGI in assay [7], in assay [8] and in assay [9] was over 100 µM each time.
For the molecule `O=C(N/N=C/C=C/c1ccc([N+](=O)[O-])o1)c1cc2ccccc2cc1O`, the GI50 in [1] is 2.15 µM; in [2], 0.562 µM; in [3], 2.64 µM; in assay [4], 0.326 µM; in [5], 1.5 µM; in [6], 2.02 µM. Besides, the GI50 in [7] is 1.42 µM; in assay [8] it was 3.27 µM; in [9], 1.26 µM; in assay [10], 2.48 µM. The TGI amounted to 7.05 µM in assay [1]; 5.83 µM in [2]; 9.48 µM in assay [3]; 1.4 µM in assay [4]; 3.4 µM in assay [5]; 18.9 µM in [6]. The TGI in [7] is 2.85 µM; in [8], 10.6 µM; in [9] it was 9.39 µM; in assay [10], 8.95 µM.
As to `Cc1ccc(S(=O)(=O)n2c3ccc(Br)cc3c3nc4ccccc4nc32)cc1`, the TGI in [1], in assay [2], in assay [4], in assay [6], in assay [7] and in [8] was over 100 µM in each case. In addition, the TGI in assay [9] and in [10] was over 100 µM throughout.
With `O=C(NCCCCCCCCCCCCNC(=O)Nc1cccc2ccccc12)Nc1cccc2ccccc12`, the TGI in [1] is 40.8 µM; in assay [2], 30.3 µM; in assay [3] it was 43.3 µM; in [4], 34.3 µM; in assay [5], 34.4 µM; in assay [6], 31.6 µM. In addition, the TGI in [7] stood at 33.6 µM; in assay [8] it was 20.1 µM; in assay [9], 27.1 µM; in [10], 31.7 µM.
Take `CC1CCCC2(CC[N+](C)(CCC[N+](C)(C)C)CC2)C1` (stereo not given): the TGI in assay [1], in assay [2], in assay [3], in assay [4], in assay [5] and in [6] was over 100 µM in each case. In addition, the TGI in assay [7], in assay [8], in assay [9] and in assay [10] was over 100 µM in each case.
As for `COc1ccc(CC(N)c2ccc(OC)cc2)cc1` (stereo not given), the TGI in [1], in assay [2], in [3], in [4], in assay [5] and in assay [6] was over 100 µM throughout. Moreover, the TGI in assay [7], in assay [8], in assay [9] and in [10] was over 100 µM throughout.
As for `COc1cccc(CCN2CCN(CCCc3ccccc3)CC2)c1`, the TGI in assay [1], in [2], in assay [3], in assay [4], in assay [5] and in assay [6] was over 100 µM each time. For the same molecule, the TGI in [7], in assay [8], in assay [9] and in assay [10] was over 100 µM in each case.
On to `CCOP(=O)(/C=C\n1cc(C)c(=O)[nH]c1=O)OCC`, for which the TGI in assay [1], in [2], in assay [3], in assay [4], in [6] and in assay [7] was over 100 µM in each case. In addition, the TGI in [8], in [9] and in assay [10] was over 100 µM in each case.
On to `CN(C)c1ccc(/C(F)=C(F)/C(F)=C(F)/C(F)=C(\F)c2ccc(Br)cc2)cc1`, for which the TGI in assay [1] is 98 µM; in assay [2] it was over 60.5 µM; in assay [3] it was over 100 µM; in assay [4] it was over 25.5 µM; in assay [5], over 71.8 µM; in assay [6] it was over 25.5 µM. The TGI in [7] is over 100 µM; in assay [8], over 100 µM; in assay [9], over 100 µM; in [10], over 95.5 µM.
As for `Cc1cc(C)nc(SC2=C(Nc3ccc(C)c(Cl)c3)C(=O)N(Cc3ccccc3)C2=O)n1`, the GI50 in assay [1] was over 160 µM; in assay [2], over 160 µM; in assay [4], over 160 µM; in assay [5] it was over 160 µM; in assay [7] it was over 160 µM; in assay [8], 1.35 µM. Further, the GI50 in [9] and in [10] was over 160 µM each time. The TGI in [1], in [2], in assay [4], in assay [5], in [7] and in assay [8] was over 160 µM each time. The TGI in [9] and in assay [10] was over 160 µM each time.
For the molecule `[Cl][Sn]([c]1ccccc1)([c]1ccccc1)[c]1ccccc1`, the TGI in [2] was 0.362 µM and 0.0422 µM and 0.0566 µM; in assay [3], 0.985 µM and 0.239 µM and 0.119 µM; in assay [6], 0.114 µM and 0.0651 µM; in assay [8], 0.467 µM and 0.188 µM and 0.287 µM; in assay [10], 0.523 µM and 0.159 µM. For the same molecule, the GI50 in [6] is 0.031 µM and 0.0142 µM; in assay [8] it was 0.21 µM and 0.0575 µM and 0.132 µM; in [9], 0.213 µM and 0.034 µM and 0.0215 µM; in assay [10], 0.165 µM and 0.0456 µM.
